Measured values from patent US11021445B2, “Carboxylic acid derivative as AT2R receptor antagonist” (SHANDONG DANHONG PHARMACEUTICAL CO., LTD., priority 2017, dated 2021).

Key:
hAT2 = target: T1, hAT2 (Homo sapiens, UniProt P50052); experiment: hAT2 receptor binding assay (SPA, [125I]-Sar1-Ile8-Angiotensin II); conditions: membrane of HEK-293 cells overexpressing hAT2; 0.1 nM 125I ligand
T1 construct: expressed in transfected cells; host or cells: HEK-293
T1 sequence (P50052 1-363): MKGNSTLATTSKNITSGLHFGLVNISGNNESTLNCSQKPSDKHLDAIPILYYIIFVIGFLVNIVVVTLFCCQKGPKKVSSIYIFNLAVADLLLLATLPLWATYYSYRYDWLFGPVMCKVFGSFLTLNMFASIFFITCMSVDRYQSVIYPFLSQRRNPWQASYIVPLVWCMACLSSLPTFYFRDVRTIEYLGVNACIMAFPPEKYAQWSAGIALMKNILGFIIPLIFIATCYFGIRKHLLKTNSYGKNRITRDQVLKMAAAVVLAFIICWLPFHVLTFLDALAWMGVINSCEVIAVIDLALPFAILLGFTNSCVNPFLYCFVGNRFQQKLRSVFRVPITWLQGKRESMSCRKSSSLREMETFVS
Procedure, shortened: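 Competition binding by scintillation proximity: 0.1 nM final [125I]-Sar1-Ile8-Angiotensin II was displaced from hAT2-overexpressing HEK-293 membranes (1.25 μg/well, beads 250 μg/well). Test compounds were run in 8 concentrations at 3-fold steps, diluted 250-fold from stock, with overnight room-temperature shaking before counting.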

[1] = Two-way permeability study in Caco-2 cells; assay type: in vitro ADME; conditions: human; for efflux ratio at 120 min: pH 7.4; for Papp A→B at 120 min: pH 7.4, A-B direction; for Papp B→A at 120 min: pH 7.4, B-A direction
Procedure: The two-way permeability of the to-be-tested compound in Caco-2 cells was measured, and whether the to-be-tested compound was transported by efflux or not was tested.
The compound is dissolved in dimethyl sulfoxide (DMSO) or other suitable solvent to prepare a stock solution of the appropriate concentration.
A suitable internal standard (IS) is dissolved in acetonitrile (ACN) or other organic solvent to be used as a stop solution. The specific information will be described in the research report.
Nadolol, metoprolol, digoxin, estrone 3-sulfate potassium (E3S) and GF120918 were used as a hypotonic control compound, a hypertonic control compound, a P-glycoprotein (P-gp) substrate, a breast cancer resistance protein (BCRP) substrate, and an efflux transporter inhibitor in this study. Stock solutions of these compounds are prepared with DMSO and stored at ≤−30° C., and used within 6 months.
In this study, HBSS (Hanks Balanced Salt Solution) containing 10 mM HEPES (2-[4-(2-hydroxyethyl)-1-piperazine]ethanesulfonic acid) was used as a transport buffer (pH 7.40*0.05).
Caco-2 cells were cultured in an MEM medium (Minimum Essential Media) under the conditions of 37±1° C., 5% CO2 and saturated humidity. The cells were then seeded in a Corning Transwell-96 well plate at a density of 1×10^5 cells/cm^2, and then the cells were placed in a carbon dioxide incubator for culture for 21-28 days for transport experiments. The medium was changed once every 5-6 days during culture.
Compounds were administered at concentrations of 2, 10 and 100 μM and were administered in both directions (A-B and B-A directions) with or without 10 μM GF120918, and there are three parallels for each administration concentration. Digoxin and E3S were tested at the concentration of 10 μM and 5 μM, respectively, and administered bidirectionally with or without 10 μM GF120918. The test concentrations of nadolol and metoprolol were 2 μM, and nadolol and metoprolol were administered unidirectionally (the A-B direction) without 10 μM GF120918. The three control compounds were also made in three parallels.
The administration solution, receiving solution and transport buffer were pre-incubated for 30 minutes at 37° C. The cell layer was rinsed twice with the transport buffer. The administration solution and the receiving solution were separately added to the corresponding cell plate wells (75 μL and 250 μL, respectively, for each of the top and base end wells). After sampling, the cell plates were incubated for 120 minutes in an incubator at 37±1° C., 5% CO2 and saturated humidity.
After all the compounds were subjected to vortex oscillation, the compounds after vortex oscillation were centrifuged at 3220×g, and 20° C. for 20 minutes, the appropriate volume of the supernatant was transferred to a sample analysis plate, and after the plate was sealed, the compounds were stored at 2-8° C. if the compounds were not immediately analyzed. The analysis was carried out by the method of LC/MS/MS, and the specific compound treatment method is shown in the research report.
The Lucifer Yellow Rejection Assay was used to test the integrity of Caco-2 cells. Six cell wells were randomly selected from each cell plate, and 100 μM Lucifer Yellow was added respectively. The Lucifer Yellow Rejection Assay and the transport experiment were performed simultaneously. After 120 minutes of incubation, a Lucifer Yellow sample was taken and the relative fluorescence unit (RFU) of the Lucifer Yellow in the sample was detected at a 425/528 nm (excitation/emission) spectrum.
The concentrations of the to-be-tested compound and the control compounds nadolol, metoprolol, digoxin and E3S in the samples were determined by liquid chromatography-tandem mass spectrometry (LC/MS/MS). The retention time of the analyte and internal standard, chromatogram acquisition and chromatogram integration were processed by using the software Analyst (AB Sciex, Framingham, Mass., USA).

SMILES | IC50 (hAT2) [nM] | efflux ratio at 120 min [1] | Papp A→B at 120 min [1] [×10⁻⁶ cm/s] | Papp B→A at 120 min [1] [×10⁻⁶ cm/s]
COc1ccc2c(c1OCc1ccccc1)C[C@@H](C(=O)O)N(C(=O)[C@@H](OC1(C)CCCC1)c1ccccc1)C2 [Compound 57] | 5.8 | 26.3 | 0.67 | 17.7
COc1ccc2c(c1OCc1ccccc1)C[C@@H](C(=O)O)N(C(=O)[C@@H](OC1CC(F)(F)C1)c1ccccc1)C2 [Compound 51] | 3.2 | – | – | –
COc1ccc2c(c1OCc1ccccc1)C[C@@H](C(=O)O)N(C(=O)C(c1ccccc1)c1ccccc1)C2 [EMA-401, reference compound] | – | – | 0.11 | 6.4
COc1ccc2c(c1OCc1ccccc1)C[C@@H](C(=O)O)N(C(=O)[C@@H](OC1CCCC1)c1ccccc1)C2 [Compound 37] | 4.1 | 32.5 | 0.27 | 8.68
O=C(O)[C@@H]1Cc2c(ccc(Cl)c2OCc2ccccc2)CN1C(=O)[C@@H](OC1CCCC1)c1ccccc1 [Compound 107] | 13.2 | 13.1 | 0.48 | 6.24
COc1ccc2c(c1OCc1ccccc1)C[C@@H](C(=O)O)N(C(=O)[C@@H](O[C@H]1CC[C@@H](O)CC1)c1ccccc1)C2 [Compound 63] | 10.3 | – | – | –
